# Values quoted from earlier work, collected in patent US8202545B2, “Nutraceutical for the prevention and treatment of cancers and diseases affecting the liver” (Canthao Corporation, priority 2003, dated 2012).
# Tests used:
# [1] = system: recurrent and second primary hepatomas; details: treated group vs placebo 49%, P=0.04
# chronic hepatitis = chronic hepatitis patients
# [2] = latest phase III clinical trial
compound,measurement,setting,value
"CC(C)=CCC/C(C)=C/CC/C(C)=C/C=C/C(C)=C/C(=O)O [acyclic retinoid, polyprenoic acid]",incidence of recurrent or new hepatoma,[1],27%
COc1cccc2c1C(=O)c1c(O)c3c(c(O)c1C2=O)C[C@@](O)(C(=O)CO)C[C@@H]3O[C@H]1C[C@H](N)[C@H](O)[C@H](C)O1 [Doxorubicin],median survival of patients treated,liver cancer; [2],7 months
same,response rate,liver cancer; [2],11%
same,patients in whom agent is effective,liver cancer; liver cancer patients,less than 20%
same,median survival,liver cancer; liver cancer patients (Leung and Johnson 2001),less than 6 months
interferon,overall response rate (normalization of liver enzyme levels and reduction of viral load),chronic hepatitis,roughly 50%
O=C1O[C@H]([C@@H](O)CO)C(O)=C1O [ascorbic acid],AFP level in cells,human hepatoma cell; decreased from 302,90
same,cellular growth inhibition as compared to controls,human hepatoma cell; human hepatoma cells,approximately 60%
